Reference: patent publication US7754715B2, “Sustained-release oral molsidomine composition for treating atherosclerosis” (Therabel Pharmaceuticals Limited, priority 2004, dated 2010)
Entries after “also recorded” stand apart in the source; their conditions may differ.

Columns and labels:
[1] = test system: ICAM-1s (circulating soluble ICAM-1); assay: Circulating soluble ICAM-1 in serum (ELISA) in long-term clinical study of patients with stable angina pectoris; assay type: in vivo, human; conditions: for concentration of ICAM-1s, Mean ± SD: 4 weeks double-blind
Procedure: This study comprised 3 consecutive phases: • a 7-day pre-study under placebo; • a 4-week double-blind and double-placebo randomized crossover study during which the patients received alternately (2×2 weeks) a molsidomine-based formulation containing an 8 mg dose, currently marketed in Belgium under the name Corvatard® (2 daily dosage units), and a molsidomine-based formulation containing a 16 mg dose, effective over 24 hours, currently marketed in Belgium under the name Coruno® (1 daily dosage unit); and • a 12-month study during which the 172 patients received a molsidomine-based formulation containing a 16 mg dose, currently marketed in Belgium under the name Coruno®. Also, and of greatest importance, the concentrations of ICAM-1s were measured after each of the three phases of the study, the first measurement constituting the baseline. More precisely, the concentrations of ICAM-1s were measured as follows: Blood samples (5 ml) were taken in non-heparinized tubes. These samples were kept at room temperature and then centrifuged. The serum was separated off and immediately frozen at −20° C. until required for analysis. The circulating ICAM-1 was measured using a commercially available ELISA test (R&D Systems Europe).

[2] = Weekly frequency of angina attacks and of consumption of s.l. ISDN 5 mg tablets in clinical study; assay type: in vivo, human
Procedure: This study comprised 3 consecutive phases: • a 7-day pre-study under placebo; • a 4-week double-blind and double-placebo randomized crossover study during which the patients received alternately (2×2 weeks) a molsidomine-based formulation containing an 8 mg dose, currently marketed in Belgium under the name Corvatard® (2 daily dosage units), and a molsidomine-based formulation containing a 16 mg dose, effective over 24 hours, currently marketed in Belgium under the name Coruno® (1 daily dosage unit); and • a 12-month study during which the 172 patients received a molsidomine-based formulation containing a 16 mg dose, currently marketed in Belgium under the name Coruno®. It is pointed out that, during the second phase of the study, the concomitant use of other antianginal drugs was prohibited with the exception of sublingual (s.l.) isosorbide dinitrate (ISDN) 5 mg in tablet form, which could be consumed ad libitum to alleviate the symptoms of anginal pain. In the course of this study, the weekly frequency of angina attacks and the weekly frequency of consumption of s.l. ISDN 5 mg tablets were noted.

[3] = 4-week treatment, versus baseline

SMILES: CCOC(=O)[N-]c1cn(N2CCOCC2)n[o+]1 [molsidomine]
- effect on the levels of circulating ICAM-1s ([1]; 4-week treatment (16 mg o.a.d. or 8 mg b.i.d.)): no effect; also recorded: did not cause any effect
- concentration of ICAM-1s, Mean ± SD ([1]; alcohol <1 glass/day, N=161): 276 ± 89 ng/mL
- concentration of ICAM-1s, Mean ± SD ([1]; alcohol ≧1 glass/day, N=11): 242 ± 38 ng/mL
- concentration of ICAM-1s, Mean ± SD ([1]; all patients, N=172): 274 ± 87 ng/mL
- concentration of ICAM-1s, Mean ± SD ([1]; both concomitant drugs, N=20): 247 ± 45 ng/mL
- concentration of ICAM-1s, Mean ± SD ([1]; concomitant beta-blockers, N=30): 281 ± 58 ng/mL
- concentration of ICAM-1s, Mean ± SD ([1]; concomitant statins, N=38): 277 ± 70 ng/mL
- concentration of ICAM-1s, Mean ± SD ([1]; former smokers, N=59): 277 ± 67 ng/mL
- concentration of ICAM-1s, Mean ± SD ([1]; men, N=117): 264 ± 58 ng/mL
- concentration of ICAM-1s, Mean ± SD ([1]; no concomitant medication, N=78): 276 ± 112 ng/mL
- concentration of ICAM-1s, Mean ± SD ([1]; non-smokers, N=81): 262 ± 74 ng/mL
- concentration of ICAM-1s, Mean ± SD ([1]; smokers, N=32): 297 ± 138 ng/mL
- concentration of ICAM-1s, Mean ± SD ([1]; women, N=55): 293 ± 128 ng/mL
- consumption of sublingual nitro compounds [2, 3]: decreased
- number of angina attacks [2, 3]: decreased
- antianginal effects ([2]; after one year): maintained or even improved
